In patent publication US20230081720A1, “MCL-1 INHIBITOR ANTIBODY-DRUG CONJUGATES AND METHODS OF USE” (NOVARTIS AG, priority 2019, published 2023):
pIC50: −log10 of the molar value. Read-outs that look alike come from different tables or passages of the source. Marks after values point to notes of the source that are not given here.

Legend:
EOL-1 = assay type: cell-based
Procedure: (§1) The CD74 MCL-1 antibody drug conjugates were tested against three endogenous cancer cell lines. MONO-MAC-1 (DSMZ No. ACC-252 cultured in RPMI-1640+10% FBS+1× non-essential amino acids+1 mM sodium pyruvate), NOMO-1 (DSMZ No. ACC-542 cultured in RPMI-1640+10% FBS) and EOL-1 (DSMZ No. ACC-386 cultured in RPMI-1640+10% FBS)
(§2) The ability of the CD74 MCL-1 antibody drug conjugates to inhibit cell proliferation in combination with BCL-2 inhibitor and survival was assessed using the Promega CellTiter-Glo® proliferation assay. Cell lines were cultured in media that is optimal for their growth at 5% CO2, 37° C. in a tissue culture incubator. Prior to seeding for the proliferation assay, the cells were split at least 2 days before the assay to ensure optimal growth density. On the day of seeding, suspension cells were harvested. Cell viability and cell density were determined using a cell counter (Vi-Cell XR Cell Viability Analyzer, Beckman Coulter). […] Cells were seeded at a density of 1,000 cells per well in 45 μL of standard growth media. Plates were incubated at 5% CO2, 37° C. overnight in a tissue culture incubator. The next day, free MCL-1 payload (P1), targeting MCL-1 ADCs and non-targeting isotype ADCs were prepared at 10× in standard growth media. The prepared drug treatments were then added to the cells resulting in final concentrations of 0.0005-300 nM and a final volume of 50 μL per well. Each drug concentration was tested in quadruplets. Three conditions were evaluated for each compound. The compounds were evaluated as single agents and in combination with Venetoclax and in combination with Compound A1. The Venetoclax and Compound A1 were dosed at either 5 nM or 50 nM final concentration. Plates were incubated at 5% CO2, 37° C. for 5 days in a tissue culture incubator, after which cell viability was assessed through the addition of 25 μL of CellTiter Glo® (Promega, cat#G7573), a reagent which lyses cells and measures total adenosine triphosphate (ATP) content. Plates were incubated at room temperature for 10 minutes to stabilize luminescent signals prior to reading using a luminescence reader (EnVision Multilabel Plate Reader, PerkinElmer). To evaluate the effect of the drug treatments, luminescent counts from wells containing untreated cells (100% viability) were used to normalize treated samples. A variable slope model was applied to fit a nonlinear regression curve to the data in GraphPad PRISM version 7.02 software. IC50 and Amax values were extrapolated from the resultant curves.

MONO-MAC-1 = assay type: cell-based
Procedure: as §1, §2

NOMO-1 = assay type: cell-based
Procedure: as §1, §2

[1] = tested on: EOL1 human acute myeloid (eosinophilic) leukemia xenograft model; assay: EOL1 xenograft, CD74-ADCs Fc silent with different linker payloads (Example 15); assay type: in vivo, mice; settings: for T/C (%): day 10; for ΔTumor volume (mm^3): day 10, mean
Procedure: To optimize the linker payload, efficacy of 6 CD74-ADCs with different linker payloads (L5-P1, L30-P1, L31-P1, L32-P1, L33-P1 and L34-P1) was evaluated in the EOL1 model in vivo.
EOL1 luciferase transfected cells were cultured at 37° C. in an atmosphere of 5% CO2 in air in RPM11640 (BioConcept Ltd. Amimed) supplemented with 10% FCS (BioConcept Ltd. Amimed, #2-01 F30-1), 2 mM L-glutamine (BioConcept Ltd. Amimed, #5-10K00-H) and 1 mM sodium pyruvate (BioConcept Ltd. Amimed, #5-60F00-H), 10 mM HEPES (Gibco #11560496). To establish EOL1 xenografts cells were harvested and re-suspended in HBSS (Gibco, #14175) before injecting 100 μL containing 5×10^6 cells subcutaneously in the flanks of female SCID beige mice (Charles River, Germany). Tumor growth was monitored regularly post cell inoculation and animals were randomized into treatment groups (n=6) with a mean tumor volume of about 130 mm^3. The ADCs were administered intravenously (iv) once at the start of treatment at 2.5 mg/kg or at 3.3 mg/kg in combination with venetoclax which was administered orally (po) daily (qd) at 50 mg/kg. Doses were adjusted to individual mouse body weights. The iv dose volume was 10 ml/kg and each ADC was dissolved in 0.9% (w/v) NaCl in water. Tumor volume data on day 10 post treatment were analyzed statistically using one way ANOVA post hoc Tukey's multiple comparisons test (Indigo Software). Results are presented as mean±SEM. As a measure of efficacy the % T/C value is calculated on day 10 according to:
(Δtumor volume^treated/Δtumor volume^control)*100
Tumor regression was calculated according to:
−(Δtumor volume^treated/tumor volume^treated at start)*100
Where Δtumor volumes represent the mean tumor volume on the evaluation day minus the mean tumor volume at the start of the experiment.

Monomac1 cells = assay: Viability of Monomac1 AML cell line, CellTiterGlo 72 h; assay type: cell-based; settings: read-out: IC50 M (CTG 72 h) Monomac1
Procedure: Monomac1 cells were cultivated in RPMI supplemented with 10% heat inactivated fetal bovine serum, penicillin (100 IU/ml), streptomycin ([…]) and L-glutamine (2 mM). Cell lines were cultured at 37° C. in a humidified atmosphere containing 5% CO2. Cells were seeded in 96 microwell plates and exposed to the payloads or ADCs for 72 h (serially diluted; 9 concentrations each, triplicates). Effects of payloads or ADCs on cell viability were assessed after 3 days of incubation at 37° C./5% CO2 by quantification of cellular ATP levels using CellTiterGlo at 75 μL reagent/well. All the conditions were tested in triplicates. Luminescence was quantified on a multipurpose plate reader. IC50s were calculated using standard four-parametric curve fitting. […] Each experiment was performed at least twice, with results being reproducible.

[2] = 2.5 mg/kg i.v. once + Venetoclax 50 mg/kg p.o. qd
[3] = female SCID beige mice, 2.5 mg/kg i.v. once + Venetoclax 50 mg/kg p.o. qd
[4] = 3.3 mg/kg i.v. once + Venetoclax 50 mg/kg p.o. qd

`COCCOCCOCCOCCOCCOCCOCCOCCOCCOCCOCCOCCOCCOCCOCCOCCOCCOCCOCCOCCOCCOCCOCCOCCn1cc(COCc2cc(NC(=O)[C@H](CCCNC(N)=O)NC(=O)[C@@H](NC(=O)CCOCCN3C(=O)CC(C)C3=O)C(C)C)ccc2C[N+]2(C)CCN(CCOc3ccc(-c4c(-c5ccc(F)cc5)sc5ncnc(O[C@H](Cc6ccccc6OCc6ccnc(-c7ccccc7OC)n6)C(=O)O)c45)c(C)c3Cl)CC2)nn1` (some centres unmarked) [CD74-L5-P1] was tested, and the IC50 (EOL-1; + 5 nM Compound A1, 5 days) was 0.136 nM, the IC50 (EOL-1; + 5 nM Venetoclax, 5 days) was 0.164 nM and the “Amax (Span) EOL-1” value (EOL-1; single agent, 5 days) was 91.25. The IC50 (EOL-1; single agent, 5 days) was 1.42 nM, the IC50 (MONO-MAC-1; + 5 nM Compound A1, 5 days) was 0.636 nM and the IC50 (MONO-MAC-1; + 5 nM Venetoclax, 5 days) was 1.31 nM. The IC50 (MONO-MAC-1; + 50 nM Compound A1, 5 days) was 0.156 nM, the IC50 (MONO-MAC-1; + 50 nM Venetoclax, 5 days) was 0.409 nM and the “Amax (Span) MONO-MAC-1” value (MONO-MAC-1; single agent, 5 days) was 84.9. For the same molecule, the IC50 (MONO-MAC-1; single agent, 5 days) was 7.95 nM, the IC50 (NOMO-1; + 5 nM Compound A1, 5 days) was 0.457 nM and the IC50 (NOMO-1; + 5 nM Venetoclax, 5 days) was 1.03 nM. For the same molecule, the IC50 (NOMO-1; + 50 nM Compound A1, 5 days) was 0.138 nM, the IC50 (NOMO-1; + 50 nM Venetoclax, 5 days) was 0.278 nM and the “Amax (Span) NOMO-1” value (NOMO-1; single agent, 5 days) was 74.45. The IC50 (NOMO-1; single agent, 5 days) was 3.7 nM, the “T/C (%)” value [1, 2] was 70% and the “ΔTumor volume (mm^3)” value [1, 3] was 702 mm^3.
Work on `COc1ccccc1-c1nccc(COc2ccccc2C[C@@H](Oc2ncnc3sc(-c4ccc(F)cc4)c(-c4ccc(OCCN5CC[N+](C)(Cc6ccc(NC(=O)[C@H](CCCNC(N)=O)NC(=O)[C@@H](NC(=O)CCOCCN7C(=O)CC(C)C7=O)C(C)C)cc6)CC5)c(Cl)c4C)c23)C(=O)O)n1` (some centres unmarked) [CD74-L9-P1] yielded a pIC50 (Monomac1 cells; 72 h) of 9.32.
With `COCCOCCOCCOCCOCCOCCOCCOCCOCCOCCOCCOCCOCCOCCOCCOCCn1cc(COCc2cc(NC(=O)[C@H](CCCNC(N)=O)NC(=O)[C@@H](NC(=O)CCOCCN3C(=O)CC(C)C3=O)C(C)C)ccc2C[N+]2(C)CCN(CCOc3ccc(-c4c(-c5ccc(F)cc5)sc5ncnc(O[C@H](Cc6ccccc6OCc6ccnc(-c7ccccc7OC)n6)C(=O)O)c45)c(C)c3Cl)CC2)nn1` (some centres unmarked) [CD74-L34-P1] the “T/C (%)” value [1, 2] was 40* %, the “T/C (%)” value [1, 4] was 17*^$ % and the “ΔTumor volume (mm^3)” value [1, 4] was 170 mm^3. The “ΔTumor volume (mm^3)” value [1, 3] was 401 mm^3.
`COc1ccccc1-c1nccc(COc2ccc3cc2C[C@H](C(=O)O)Oc2ncnc4sc(-c5ccc(F)cc5)c(c24)-c2c(C)c(Cl)c(c(Cl)c2C)O[C@H](CN2CCN(C)CC2)CO3)n1` [P15, (11R,20R)-23,26-dichloro-3-(4-fluorophenyl)-14-[[2-(2-methoxyphenyl)pyrimidin-4-yl]methoxy]-24,25-dimethyl-20-[(4-methylpiperazin-1-yl)methyl]-10,18,21-trioxa-4-thia-6,8-diazapentacyclo[20.2.2.12,5.113,17.09,28]octacosa-1(25),2,5(28),6,8,13,15,17(27),22(26),23-decaene-11-carboxylic acid] gave a pIC50 (Monomac1 cells; Mono-Mac-1, 72 h) of 9.41.
`Cc1c(Cl)c2c(Cl)c(C)c1-c1c(-c3ccc(F)cc3)sc3ncnc(c13)O[C@@H](C(=O)O)Cc1cc(ccc1OCc1ccnc([C@H]3CC[C@](F)(COC[C@@H]4COCCO4)CC3)n1)OC[C@@H](CN1CCN(C)CC1)O2` [P16, (11R,20R)-23,26-dichloro-14-[[2-[4-[[(2S)-1,4-dioxan-2-yl]methoxymethyl]-4-fluoro-cyclohexyl]pyrimidin-4-yl]methoxy]-3-(4-fluorophenyl)-24,25-dimethyl-20-[(4-methylpiperazin-1-yl)methyl]-10,18,21-trioxa-4-thia-6,8-diazapentacyclo[20.2.2.12,5.113,17.09,28]octacosa-1(24),2,5(28),6,8,13,15,17(27),22,25-decaene-11-carboxylic Acid] was tested, and the pIC50 (Monomac1 cells; Mono-Mac-1, 72 h) was 9.55.
In the case of `Cc1c(Cl)c2c(Cl)c(C)c1-c1c(-c3ccc(F)cc3)sc3ncnc(c13)O[C@@H](C(=O)O)Cc1cc(ccc1OCc1ccnc([C@H]3CC[C@H](OC[C@@H]4COCCO4)CC3)n1)OC[C@@H](CN1CCN(C)CC1)O2` [P17, (11R,20R)-23,26-dichloro-14-[[2-[4-[[(2S)-1,4-dioxan-2-yl]methoxy]cyclohexyl]pyrimidin-4-yl]methoxy]-3-(4-fluorophenyl)-24,25-dimethyl-20-[(4-methylpiperazin-1-yl)methyl]-10,18,21-trioxa-4-thia-6,8-diazapentacyclo[20.2.2.12,5.113,17.09,28]octacosa-1(24),2,5(28),6,8,13,15,17(27),22,25-decaene-11-carboxylic Acid], the pIC50 (Monomac1 cells; Mono-Mac-1, 72 h) was 9.21.
